Among the data in patent publication US9975888B2, “Aryl linked imidazole and triazole derivatives and methods of use thereof for improving the pharmacokinetics of a drug” (MERCK SHARP & DOHME CORP., priority 2013, dated 2018) are IC50 values, retold here.

Type in all cases: biochemical
In experiment [1] the target is T1, CYP3A4 (Homo sapiens, UniProt P08684). The experiment can be described thus: IC50 vs CYP3A by inhibition of lopinavir metabolism in human liver microsomes. Set-up: 0.01 mg/mL protein human liver microsomes (BD Gentest); tissue BD Gentest; host or cells: human liver microsomes. Conditions: 1.5 μM lopinavir, 0.01 mg/mL human liver microsomes, 8 min at 37° C.; read-out: CYP IC50 (nM) 3A4 (LPV). A digest of the protocol: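 Human liver microsomes (0.01 mg/mL) with 1.5 μM lopinavir, 1 mM NADPH, 3.3 mM MgCl2 in 100 mM potassium phosphate pH 7.4, 8 min at 37 °C, six compound concentrations. Summed M2/M3/M4 hydroxy metabolites quantified by LC/MS/MS against tolbutamide; % inhibition normalised between no-inhibitor and 5 μM ketoconazole controls, IC50 by non-linear regression.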
Target sequence in this assay (P08684 2-503): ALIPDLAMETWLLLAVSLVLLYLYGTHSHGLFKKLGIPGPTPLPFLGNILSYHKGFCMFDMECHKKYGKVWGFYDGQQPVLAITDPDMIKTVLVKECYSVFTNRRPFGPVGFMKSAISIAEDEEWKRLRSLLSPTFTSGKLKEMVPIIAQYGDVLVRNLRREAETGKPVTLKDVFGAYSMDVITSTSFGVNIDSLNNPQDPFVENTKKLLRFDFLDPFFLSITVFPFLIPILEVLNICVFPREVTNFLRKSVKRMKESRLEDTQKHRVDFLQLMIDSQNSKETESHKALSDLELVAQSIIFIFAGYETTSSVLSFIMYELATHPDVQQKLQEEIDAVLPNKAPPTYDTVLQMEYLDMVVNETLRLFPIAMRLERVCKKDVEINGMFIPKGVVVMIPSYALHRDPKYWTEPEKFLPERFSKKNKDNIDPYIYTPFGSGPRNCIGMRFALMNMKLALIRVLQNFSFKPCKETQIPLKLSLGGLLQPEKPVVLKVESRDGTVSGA

The target in the next experiment is T2, CYP2C19 (Homo sapiens, UniProt P33261).
T2 construct: 0.1 mg/mL protein human liver microsomes (BD Gentest); tissue BD Gentest; host or cells: human liver microsomes
T2 sequence (P33261 whole entry): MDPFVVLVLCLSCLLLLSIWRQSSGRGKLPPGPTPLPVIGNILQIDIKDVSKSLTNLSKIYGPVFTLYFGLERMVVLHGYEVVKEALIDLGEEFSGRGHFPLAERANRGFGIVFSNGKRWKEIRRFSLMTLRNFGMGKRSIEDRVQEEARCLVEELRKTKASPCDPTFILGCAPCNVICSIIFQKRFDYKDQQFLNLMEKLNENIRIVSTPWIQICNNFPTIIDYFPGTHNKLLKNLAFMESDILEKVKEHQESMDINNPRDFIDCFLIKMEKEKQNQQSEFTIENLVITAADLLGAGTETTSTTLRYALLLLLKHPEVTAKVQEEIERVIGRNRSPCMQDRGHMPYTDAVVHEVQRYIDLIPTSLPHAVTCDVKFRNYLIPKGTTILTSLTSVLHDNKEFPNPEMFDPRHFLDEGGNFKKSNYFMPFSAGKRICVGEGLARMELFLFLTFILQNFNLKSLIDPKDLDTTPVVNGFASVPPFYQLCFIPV
The experiment can be described thus: Cocktail assay for CYPs, mephenytoin 4′-hydroxylation (CYP2C19), human liver microsomes. Conditions: 0.1 mg/mL human liver microsomes, 10 min at 37° C. The gist of the method: (§1)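 Pooled human liver microsomes (0.1 mg/mL) with probe cocktail incl. 5 μM diclofenac (CYP2C9) and 30 μM mephenytoin (CYP2C19), 1 mM NADPH, pH 7.4 phosphate buffer, 10 min at 37° C. Metabolites quantified by LC/MS/MS against internal standard; % inhibition versus no-inhibitor control, IC50 by non-linear regression.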

Another experiment deals with T3, CYP1A2 (Homo sapiens, UniProt P05177).
T3 construct: 0.1 mg/mL protein human liver microsomes (BD Gentest); tissue BD Gentest; host or cells: human liver microsomes
T3 sequence (P05177 1-516): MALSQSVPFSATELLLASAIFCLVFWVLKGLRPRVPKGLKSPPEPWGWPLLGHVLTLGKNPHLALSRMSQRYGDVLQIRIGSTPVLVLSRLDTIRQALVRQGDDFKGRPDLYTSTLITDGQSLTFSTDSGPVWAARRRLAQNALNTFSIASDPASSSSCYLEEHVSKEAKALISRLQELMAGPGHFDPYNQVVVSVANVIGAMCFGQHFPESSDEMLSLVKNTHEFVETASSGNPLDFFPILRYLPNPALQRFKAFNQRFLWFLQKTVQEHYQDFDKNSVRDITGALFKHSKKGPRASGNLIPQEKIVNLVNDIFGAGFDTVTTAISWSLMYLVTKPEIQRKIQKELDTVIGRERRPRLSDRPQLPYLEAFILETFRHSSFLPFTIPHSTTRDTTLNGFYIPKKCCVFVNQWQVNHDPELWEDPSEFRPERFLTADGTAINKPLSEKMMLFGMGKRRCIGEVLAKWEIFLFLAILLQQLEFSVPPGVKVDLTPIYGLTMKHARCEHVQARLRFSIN
The experiment can be described thus: Cocktail assay for CYPs, phenacetin O-deethylation (CYP1A2), human liver microsomes. Conditions: 10 μM phenacetin, 0.1 mg/mL human liver microsomes, 10 min at 37° C.; read-out: CYP IC50 (nM) 1A2. A digest of the protocol: (§2)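 Pooled human liver microsomes (0.1 mg/mL) with a probe cocktail of 10 μM phenacetin, 5 μM dextromethorphan and 2 μM midazolam plus NADPH, pH 7.4, 10 min at 37° C. Each metabolite was quantified by LC/MS/MS against a tolbutamide internal standard. IC50 came from % inhibition at 6 concentrations (e.g. 0.0032–10 μM) by non-linear regression.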

A further experiment addresses T4, CYP2D6 (Homo sapiens, UniProt P10635).
T4 construct: 0.1 mg/mL protein human liver microsomes (BD Gentest); tissue BD Gentest; host or cells: human liver microsomes
Nature of the experiment: Cocktail assay for CYPs, dextromethorphan O-demethylation (CYP2D6), human liver microsomes. Conditions: 5 μM dextromethorphan, 0.1 mg/mL human liver microsomes, 10 min at 37° C.; read-out: CYP IC50 (nM) 2D6. A digest of the protocol:
as §2

The target in experiment [2] is T1, CYP3A4. The experiment can be described thus: Cocktail assay for CYPs, midazolam 1′-hydroxylation (CYP3A4), human liver microsomes. The note with it: 2 μM midazolam, 0.1 mg/mL human liver microsomes, 10 min at 37° C.; read-out: CYP IC50 (nM) 3A4 (MDZ). Set-up: 0.1 mg/mL protein human liver microsomes (BD Gentest); tissue BD Gentest; host or cells: human liver microsomes. The gist of the method: as §2
Target sequence in this assay (P08684 whole entry): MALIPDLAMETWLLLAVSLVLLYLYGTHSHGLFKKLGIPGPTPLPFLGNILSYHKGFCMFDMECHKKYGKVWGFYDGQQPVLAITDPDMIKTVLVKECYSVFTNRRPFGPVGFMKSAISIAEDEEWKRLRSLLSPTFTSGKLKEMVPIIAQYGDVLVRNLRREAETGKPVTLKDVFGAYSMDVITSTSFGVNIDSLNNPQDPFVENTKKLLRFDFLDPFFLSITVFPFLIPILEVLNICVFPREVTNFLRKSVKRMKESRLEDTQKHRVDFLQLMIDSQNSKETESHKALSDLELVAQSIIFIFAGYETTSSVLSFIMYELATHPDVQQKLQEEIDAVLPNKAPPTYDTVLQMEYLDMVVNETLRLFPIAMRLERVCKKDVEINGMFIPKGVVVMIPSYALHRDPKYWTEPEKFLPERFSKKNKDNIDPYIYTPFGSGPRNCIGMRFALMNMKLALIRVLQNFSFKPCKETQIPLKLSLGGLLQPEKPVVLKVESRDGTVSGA

For the next experiment, the target named is T5, CYP2C9 (Homo sapiens, UniProt P11712).
T5 construct: 0.1 mg/mL protein human liver microsomes (BD Gentest); tissue BD Gentest; host or cells: human liver microsomes
T5 sequence (P11712 whole entry): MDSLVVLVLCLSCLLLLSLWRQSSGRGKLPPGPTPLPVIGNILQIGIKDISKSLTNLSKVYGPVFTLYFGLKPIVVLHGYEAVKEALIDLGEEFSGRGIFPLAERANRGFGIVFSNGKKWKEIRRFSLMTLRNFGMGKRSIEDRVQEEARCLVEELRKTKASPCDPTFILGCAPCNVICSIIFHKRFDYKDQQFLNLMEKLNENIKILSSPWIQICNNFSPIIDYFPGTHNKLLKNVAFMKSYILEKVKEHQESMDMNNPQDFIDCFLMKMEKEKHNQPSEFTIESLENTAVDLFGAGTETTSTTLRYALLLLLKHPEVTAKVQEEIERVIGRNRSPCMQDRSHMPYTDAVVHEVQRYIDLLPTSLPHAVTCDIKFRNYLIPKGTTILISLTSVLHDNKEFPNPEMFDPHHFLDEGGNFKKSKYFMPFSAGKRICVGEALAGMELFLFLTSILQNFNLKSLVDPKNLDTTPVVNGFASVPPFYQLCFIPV
The experiment can be described thus: Cocktail assay for CYPs, diclofenac 4′-hydroxylation (CYP2C9), human liver microsomes. The note with it: 0.1 mg/mL human liver microsomes, 10 min at 37° C. The gist of the method: as §1

The mark [3] stands for this setting: 30 μM mephenytoin, read-out: CYP IC50 (nM) 2C19.
[4] abbreviates: 5 μM diclofenac, read-out: CYP IC50 (nM) 2C9.

Structures are written as SMILES. Like-named read-outs stand apart in the source and are kept apart here. A value given as a limit tells only on which side of the number the result lay.

T4 sequence (P10635 whole entry): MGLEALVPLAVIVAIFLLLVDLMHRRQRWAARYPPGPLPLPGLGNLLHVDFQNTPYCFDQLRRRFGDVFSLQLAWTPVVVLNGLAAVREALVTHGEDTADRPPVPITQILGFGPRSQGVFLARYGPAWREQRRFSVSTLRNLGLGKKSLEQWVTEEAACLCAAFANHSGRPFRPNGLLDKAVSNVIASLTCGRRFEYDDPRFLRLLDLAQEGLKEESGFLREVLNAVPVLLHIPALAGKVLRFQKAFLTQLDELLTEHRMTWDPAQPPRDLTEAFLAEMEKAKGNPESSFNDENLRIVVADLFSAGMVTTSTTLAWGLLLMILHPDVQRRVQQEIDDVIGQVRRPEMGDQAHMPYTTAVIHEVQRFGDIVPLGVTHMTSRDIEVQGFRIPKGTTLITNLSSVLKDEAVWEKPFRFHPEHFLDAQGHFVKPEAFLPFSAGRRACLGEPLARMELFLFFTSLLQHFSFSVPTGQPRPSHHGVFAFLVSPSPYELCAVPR

On to `CC(C)OC(=O)N1CCCC1c1ccccc1-c1cncn1CCc1ccc(F)cc1` (single isomer, unassigned) [Compound 39b, (R or S)-isopropyl 2-(2-(1-(4-fluorophenethyl)-1H-imidazol-5-yl)phenyl) pyrrolidine-1-carboxylate], for which the concentration for half-maximal inhibition (IC50) was 28.2 nM on CYP3A4 [1]; 4740 nM at CYP2C19 (setting [3]); above 10000 nM on CYP1A2; 8580 nM at CYP2D6; 34.5 nM on CYP3A4 [2]; 6380 nM on CYP2C9 (setting [4]).

Turning to `CN1CCN(c2ccc(S(=O)(=O)N3CCc4c(cccc4-c4cncn4CCc4ccc(F)cc4)C3)cn2)CC1` [Compound 59, 5-(1-(4-fluorophenethyl)-1H-imidazol-5-yl)-2-((6-(4-methylpiperazin-1-yl)pyridin-3-yl)sulfonyl)-1,2,3,4-tetrahydroisoquinoline], the half-maximal inhibitory concentration (IC50) on CYP3A4 [1] is 1.5 nM; on CYP2C19 (setting [3]), 5610 nM; on CYP1A2 it was above 10000 nM; on CYP2D6, 1980 nM; at CYP3A4 [2], 4 nM; on CYP2C9 (setting [4]) it was 4530 nM.

Take `O=S(=O)(c1cnc(Cl)c(Br)c1)N1CCCC1c1ccccc1-c1cncn1CCc1ccc(F)cc1` (stereo not drawn) [Compound 25, 3-bromo-2-chloro-5-((2-(2-(1-(4-fluoro-phenethyl)-1H-imidazol-5-yl)phenyl)pyrrolidin-1-yl)sulfonyl) pyridine]: the half-maximal inhibitory concentration (IC50) was found to be 23 nM on CYP3A4 [1]; 1890 nM at CYP2C19 (setting [3]); 9490 nM at CYP1A2; 2140 nM at CYP2D6; 50.3 nM at CYP3A4 [2]; 2220 nM on CYP2C9 (setting [4]).

For the molecule `COc1ccc(OC)c(S(=O)(=O)N2CCCC2c2cccc(-c3cncn3CCc3ccc(F)cc3)c2)c1` (single isomer, unassigned) [Compound 53a, (R or S)-5-(3-(1-((2,5-dimethoxyphenyl)sulfonyl)pyrrolidin-2-yl)phenyl)-1-(4-fluorophenethyl)-1H-imidazole], the 50% inhibitory concentration (IC50) on CYP3A4 [1] is 2 nM; on CYP2C19 (setting [3]) it was 78.6 nM; on CYP1A2, 1080 nM; on CYP2D6, 1370 nM; on CYP3A4 [2], 8.65 nM; at CYP2C9 (setting [4]), 165 nM.

Regarding `O=C(NCc1ccc(S(=O)(=O)N2CCCC2c2cccc(-c3cncn3CCc3ccc(F)cc3)c2)s1)c1ccccc1` (single isomer, unassigned) [Compound 55b, (R or S)-N-((5-((2-(3-(1-(4-fluorophenethyl)-1H-imidazol-5-yl)phenyl)pyrrolidin-1-yl)sulfonyl)thiophen-2-yl)methyl) benzamide], the IC50 on CYP3A4 [1] stood at 0.92 nM; on CYP2C19 (setting [3]), 56 nM; on CYP1A2, 158 nM; on CYP2D6, 163 nM; at CYP3A4 [2], 5.1 nM; at CYP2C9 (setting [4]), 63.8 nM.

In the case of `CC(=O)Nc1ncc(S(=O)(=O)N2CCCC2c2ccc(-c3cncn3CCc3ccc(F)cc3)cc2)s1` (stereo not drawn) [Compound 8, N-(5-((2-(4-(1-(4-fluorophenethyl)-1H-imidazol-5-yl)phenyl)pyrrolidin-1-yl)sulfonyl)thiazol-2-yl)acetamide], the IC50 on CYP3A4 [1] was 1.9 nM; on CYP2C19 (setting [3]), 281 nM; on CYP1A2, 8560 nM; on CYP2D6, 1200 nM; at CYP3A4 [2], 4.4 nM; on CYP2C9 (setting [4]) it was 565 nM.

`O=S(=O)(NCCc1ccccc1-c1cncn1CCc1ccc(F)cc1)c1cccnc1` [Compound 14, N-(2-(1-(4-fluorophenethyl)-1H-imidazol-5-yl)phenethyl)pyridine-3-sulfonamide]: the concentration for half-maximal inhibition (IC50) was 54 nM on CYP3A4 [1]; above 10000 nM at CYP2C19 (setting [3]); above 10000 nM on CYP1A2; 1100 nM at CYP2D6; 137 nM at CYP3A4 [2]; 7410 nM on CYP2C9 (setting [4]).

Regarding `O=S(=O)(NCc1ccccc1-c1cncn1CCc1ccc(F)cc1)c1cccnc1` [Compound 17, N-(2-(1-(4-fluorophenethyl)-1H-imidazol-5-yl)benzyl)pyridine-3-sulfonamide], the IC50 is 35.9 nM on CYP3A4 [1]; above 10000 nM at CYP2C19 (setting [3]); above 10000 nM at CYP1A2; 5200 nM at CYP2D6; 10.5 nM at CYP3A4 [2]; above 10000 nM on CYP2C9 (setting [4]).

In the case of `O=C(c1ccc(N2CCOCC2)nc1)N1CCCC1c1cccc(-c2cncn2CCc2ccc(F)cc2)c1` (stereo not drawn) [Compound 52, (2-(3-(1-(4-fluorophenethyl)-1H-imidazol-5-yl)phenyl)pyrrolidin-1-yl) (6-morpholino-pyridin-3-yl) methanone], the 50% inhibitory concentration (IC50) at CYP3A4 [1] came to 6 nM; at CYP2C19 (setting [3]), 249 nM; at CYP1A2 it was 6500 nM; on CYP2D6, 2460 nM; on CYP3A4 [2] it was 5.76 nM; on CYP2C9 (setting [4]) it was 1970 nM.

Consider `C[C@H](NS(=O)(=O)c1cnc(N2CCN3C[C@H](O)C[C@H]3C2)s1)c1ccccc1-c1cncn1CCc1ccc(F)cc1` [Compound 6b, N-((S)-1-(2-(1-(4-fluorophenethyl)-1H-imidazol-5-yl)phenyl)ethyl)-2-((7R,8aS)-7-hydroxy-hexahydro-pyrrolo[1,2-a]pyrazin-2(1H)-yl)thiazole-5-sulfonamide], for which the concentration for half-maximal inhibition (IC50) is 40.3 nM on CYP3A4 [1]; above 10000 nM against CYP2C19 (CYP IC50 (nM) 2C19, 30 μM mephenytoin); above 10000 nM at CYP1A2; 3500 nM at CYP2D6; 30 nM at CYP3A4 [2]; 5450 nM on CYP2C9 (CYP IC50 (nM) 2C9, 5 μM diclofenac).

In the case of `Fc1ccc(CCn2cncc2-c2ccccc2C2CCCN2)cc1` (stereo not drawn) [Compound 40, 1-(4-fluorophenethyl)-5-(2-(pyrrolidin-2-yl)phenyl)-1H-imidazole], the IC50 on CYP3A4 [1] is 27.4 nM; at CYP2C19 (setting [3]), above 10000 nM; at CYP1A2 it was above 10000 nM; at CYP2D6, 3300 nM; at CYP3A4 [2], 43.4 nM; on CYP2C9 (setting [4]) it was 4560 nM.

For `CC(c1ccccc1-c1cncn1CCc1ccc(F)cc1)N(C)S(=O)(=O)c1cnc(N2CCN(C)CC2)s1` (stereo not drawn) [Compound 4, N-(1-(2-(1-(4-fluorophenethyl)-1H-imidazol-5-yl)phenyl)ethyl)-N-methyl-2-(4-methylpiperazin-1-yl)thiazole-5-sulfonamide], the half-inhibitory concentration (IC50) was 9 nM at CYP3A4 [1]; 6700 nM on CYP2C19 (setting [3]); above 10000 nM at CYP1A2; 5110 nM at CYP2D6; 12 nM on CYP3A4 [2]; 2200 nM on CYP2C9 (setting [4]).

As for `O=S(=O)(c1ccc(N2CCOCC2)nc1)N1CCCC1c1ccccc1-c1cncn1CCc1ccc(F)cc1` (stereo not drawn) [Compound 29, 4-(5-((2-(2-(1-(4-fluorophenethyl)-1H-imidazol-5-yl)phenyl)pyrrolidin-1-yl)sulfonyl)pyridin-2-yl)morpholine], the 50% inhibitory concentration (IC50) at CYP3A4 [1] was 7.6 nM; at CYP2C19 (setting [3]), 3260 nM; at CYP1A2, 3820 nM; at CYP2D6 it was 2930 nM; at CYP3A4 [2], 8.3 nM; at CYP2C9 (setting [4]) it was 1860 nM.

With `O=S(=O)(c1ccc(N2CCOCC2)nc1)N1CCc2c(cccc2-c2cncn2CCc2ccc(F)cc2)C1` [Compound 60, 4-(5-((5-(1-(4-fluorophenethyl)-1H-imidazol-5-yl)-3,4-dihydroisoquinolin-2(1H)-yl)sulfonyl)pyridin-2-yl) morpholine], the concentration for half-maximal inhibition (IC50) on CYP3A4 [1] was 1.8 nM; at CYP2C19 (setting [3]), 53 nM; at CYP1A2 it was above 10000 nM; at CYP2D6, 2210 nM; at CYP3A4 [2], 6.2 nM; at CYP2C9 (setting [4]), 1350 nM.
